Measured values published in patent US20220298038A1, “A METHOD FOR DISRUPTING BIOFILMS IN WASTEWATER SYSTEMS” (GRENOF PTY LTD, priority 2019, published 2022).
Where two headings read alike, the source gives them in different places.

Assays:
[1] = cited from earlier work
[2] = cited from earlier work; remark: listed apart in the source
[3] = test system: biofilm in a sewerage network; test: Trial 2: H2S Odalog monitoring, manhole 200 m from Location 2; parameters: species or system sulphate reducing microbes and methanogenic archaea
[4] = 35° C. vs 15° C.; cited from earlier work
[5] = cited from earlier work; remark: listed apart in the source
[6] = test system: biofilm; test: Biofilm disrupting activity compared with other oxidants
Method: Peracetic acid is typically more reactive at higher temperature (5 times more reactive at 35° C. than 15° C.). […] This is believed to be due to the nature and type of radicals formed upon cleavage of the peracetic acid peroxy bond.

[7] = test system: Catalase; conditions: cited from earlier work
[8] = cited from earlier work; remark: listed apart in the source
[9] = standard oxidation potential (at pH 7)
[10] = Days 67-68, H2O2 330 mg/L after F1 dosing stopped

For `S` [Bisulphide (HS^−), Bisulphide], the “Mole Fraction of Species (%)” value ([1]; pH 4) is listed as <1%, the “Mole Fraction of Species (%)” value ([1]; pH 5) is listed as ~1% and the “Mole Fraction of Species (%)” value ([1]; pH 5.5) is listed as 3%. The “Mole Fraction of Species (%)” value ([1]; pH 6.0) was 9%, the “Mole Fraction of Species (%)” value ([1]; pH 6.5) was 24% and the “Mole Fraction of Species (%)” value ([1]; pH 7.0) was 50%. For the same compound, the “Mole Fraction of Species (%)” value ([1]; pH 7.5) was 76%, the “Mole Fraction of Species (%)” value ([1]; pH 8.0) was 91% and the “Mole Fraction of Species (%)” value ([1]; pH 8.5) was 97%. For the same compound, the “Mole Fraction of Species (%)” value ([1]; pH 9.0) was ~99% and the “Mole Fraction of Species (%)” value ([1]; pH 10.0) was >99%.
In the case of `[O][Cl+][O-]` [Chlorine Dioxide], the “Oxidation Potential” value ([2]; pH 7) is listed as 0.95 eV.
In the case of `OO` [Formulation H2O2, hydrogen peroxide], the “Oxidation Potential” value [2, 9] is listed as 1.78 eV, the “Avg. H2S” value [3, 10] is listed as 0.3 ppm and the “Peak H2S” value [3, 10] is listed as 3 ppm. The “Avg. H2S” value ([3]; Days 69-81, H2O2 330 mg/L) was 2.8 ppm, the “Peak H2S” value ([3]; Days 69-81, H2O2 330 mg/L) was 72 ppm and the “Avg. H2S” value ([3]; Days 82-86, H2O2 1,000 mg/L) was 3.7 ppm. The “Peak H2S” value ([3]; Days 82-86, H2O2 1,000 mg/L) was 33 ppm.
For `S` [Hydrogen Sulphide (H2S), Hydrogen Sulphide], the “Mole Fraction of Species (%)” value ([1]; pH 4) is given as >99%, the “Mole Fraction of Species (%)” value ([1]; pH 5) is given as ~99% and the “Mole Fraction of Species (%)” value ([1]; pH 5.5) is given as 97%. The “Mole Fraction of Species (%)” value ([1]; pH 6.0) was 91%, the “Mole Fraction of Species (%)” value ([1]; pH 6.5) was 76% and the “Mole Fraction of Species (%)” value ([1]; pH 7.5) was 24%. The “Mole Fraction of Species (%)” value ([1]; pH 8.0) was 9%, the “Mole Fraction of Species (%)” value ([1]; pH 8.5) was 3% and the “Mole Fraction of Species (%)” value ([1]; pH 9.0) was ~1%. For the same compound, the “Mole Fraction of Species (%)” value ([1]; pH 10.0) was <1%.
In the case of `O=[O+][O-]` [Ozone], the “Oxidation Potential” value ([2]; pH 7) is given as 2.07 eV.
For `CC(=O)OO` [Peracetic Acid, peroxyacetic acid], the “reactivity at 35° C. relative to 15° C.” value [4] is given as 5 times, the “Oxidation Potential” value ([2]; pH 7) is given as 1.81 eV and the “DT50 (25° C.)” value ([5]; pH 4) is given as 46.7 h. The “DT50 (25° C.)” value ([5]; pH 7) was 31.7 h, the “DT50 (25° C.)” value ([5]; pH 9) was 3.6 h and the “biofilm disrupting activity compared with hydrogen peroxide” value ([6]; vs hydrogen peroxide) was “stronger biofilm disrupting activity”. The “biofilm disrupting activity compared with ozone” value ([6]; vs ozone) was “stronger biofilm disrupting activity”.
For `OCl` [Sodium Hypochlorite], the “Oxidation Potential” value [2, 9] is given as 0.94 eV.
For `CCOO` [ethyl hydroperoxide], the binding by catalase [7] is given as “rapidly” and the catalysis by catalase [7] is given as “very inefficient”.
For `CCCCCCCCCCCC(=O)OO` [peroxydodecanoic], the solubility in water ([8]; pH 7) is given as “very limited solubility”.
For `CCCCCCCCCCCCCCCCCC(=O)OO` [peroxyoctadecanoic], the solubility in water ([8]; pH 7) is given as “very limited solubility”.
For `CCCCCCCC(=O)OO` [peroxyoctanoic acid], the solubility in water ([8]; (at pH 7)) is listed as “slightly soluble”.
